Where “and” joins values, the source holds several entries; their conditions need not be identical. Identical values can stand only once.
Tests used:
ΔF508 CFTR = target: T1, ΔF508 CFTR (Homo sapiens, UniProt P13569, DEL508-508); test: Quasi-macroscopic current recording in excised inside-out patches from Xenopus laevis oocytes; type: biochemical
T1 construct: expressed in transfected cells; host or cells: Xenopus laevis oocytes injected with cRNA transcribed from mutated pGEMHE-CFTR
Excerpt: We reasoned that this circumstance might explain some of the puzzling features of the drug, such as CFTR channel inactivation observed in some cases ([Cholon et al., 2014]), as well as apparent irreversibility of drug effects ([Jih and Hwang, 2013]; [Lin et al., 2016]; [Yeh et al., 2015]; [Yeh et al., 2017]; [Wang et al., 2014]; [Wang et al., 2018]). To investigate stability and reversibility of Vx-770 effects in a concentration range that can be achieved in the human body during oral drug administration, we tested the effects of our 1x saturated Vx-770 solution and its dilutions in inside-out patches excised from Xenopus laevis oocytes expressing WT or mutant human CFTR channels.
The G551D and ΔF508 mutations were introduced into pGEMHE-CFTR using the QuikChange Kit (Agilent, Santa Clara, CA, USA), and confirmed by automated sequencing; cDNA was purified (HiSpeed Plasmid Midi Kit, Qiagen), transcribed in vitro (mMessage T7 Kit, ThermoFisher Scientific, Waltham, MA USA) and cRNA stored at −80°C.
Patch pipette solution contained (in mM): 136 NMDG-Cl, 2 MgCl2, 5 HEPES, pH = 7.4 with NMDG. Bath solution contained (in mM): 134 NMDG-Cl, 2 MgCl2, 5 HEPES, 0.5 EGTA, pH = 7.1 with NMDG. MgATP (2 mM) was added from a 400 mM aqueous stock solution (pH = 7.1 with NMDG). Before each experiment 300 nM catalytic subunit of PKA (Sigma-Aldrich Kft., Budapest, Hungary) was applied for ~1 min to phosphorylate CFTR channels. Vx-770 (Selleck Chemicals) was diluted into the bath solution either from a ‘1x saturated’ aqueous stock solution (see above, concentration ~62 nM), or from a commercially obtained 10 mM stock dissolved in DMSO (Selleck Chemicals). Following patch excision the patch pipette was moved into a flow chamber, and recordings were done under continuous superfusion of the cytosolic patch surface. Solution compositions were exchanged using computer-driven electronic valves (solution exchange time constant <50 ms). After each recording day perfusion tubings were extensively washed with distilled water. Although supersaturated solutions of Vx-770 were not employed here, any perfusion tubing that had ever been in contact with a given concentration of Vx-770 was subsequently used only for solutions that contained the same, or higher, concentrations of the drug. After every 5–6 experimental days the entire perfusion system was replaced. Currents were recorded at 25°C, at a membrane potential of −40 mV, digitized at 10 kHz, Gaussian-filtered at 2 kHz, and recorded to disk (Axopatch 200B, Digidata 1322A, Pclamp9 (Molecular Devices, RRID: SCR_011323)). For display purposes, currents are shown filtered at 10 Hz and sampled at 20 Hz, and expanded single-channel traces (Figure 2b, Figure 4d) are shown filtered at 50 Hz and sampled at 250 Hz.
Vx-770 was applied after currents elicited by 2 mM ATP had stabilized. To allow for full development of its potentiator effect, Vx-770 was superfused until the current reached steady state which, for low nanomolar Vx-770, required up to 5–6 min. After full stimulation, Vx-770 was washed off for at least 5 min to allow the current to decline to a post-drug steady state. Fractional current stimulation by Vx-770 (I/Icontrol) was calculated as the mean steady current in the presence of the drug, divided by the average of the pre- and post-drug mean steady currents. Dose response curves (Figure 3c,f) were least-squares fitted to the modified Hill equation I/Icontrol=(K0.5^n+(Imax/Icontrol)[Vx-770]^n)/(K0.5^n+[Vx-770]^n), with Imax/Icontrol, K0.5, and n as free parameters.
To obtain apparent deactivation rates, current decay time courses following Vx-770 removal were fitted by single exponentials using least squares, and deactivation rates defined as the inverse of the decay time constant (1/τoff; Figure 4c). To obtain apparent activation rates, current activation time courses upon Vx-770 addition were fitted to an empirical three-step kinetic scheme S1→S2→S3→S4. […]

[1] = Thermodynamic parameters of the Vx-770 aqueous solution process; type: physicochemical
Method: As a further parameter of clinical interest, we also determined the aqueous solubility of Vx-770 at body temperature (pH = 7.1). […] The standard enthalpy of solution, estimated from the solubilities at 37°C vs. 25°C, is ΔH^osol = +51.2 kJ/mol, and the standard free energy of solution at 25°C is ΔG^osol = +41.1 kJ/mol (Materials and methods).
The standard enthalpy of solution was calculated as ΔH^osol = ((RT1T2)/(T2−T1))⋅ln(S(T2)/S(T1)), where R = 8.31 Jmol^−1K^−1, T1 = 298 K (25°C), T2 = 310 K (37°C), and S(T1) and S(T2) are the measured aqueous solubilities of Vx-770 at the respective temperatures (pH = 7.1). The standard free energy of solution at T = 298 K (25°C) was calculated as ΔG^osol = −RT⋅ln(S(T)).

T1 sequence (P13569 with tags, fused parts or gaps DEL508-508): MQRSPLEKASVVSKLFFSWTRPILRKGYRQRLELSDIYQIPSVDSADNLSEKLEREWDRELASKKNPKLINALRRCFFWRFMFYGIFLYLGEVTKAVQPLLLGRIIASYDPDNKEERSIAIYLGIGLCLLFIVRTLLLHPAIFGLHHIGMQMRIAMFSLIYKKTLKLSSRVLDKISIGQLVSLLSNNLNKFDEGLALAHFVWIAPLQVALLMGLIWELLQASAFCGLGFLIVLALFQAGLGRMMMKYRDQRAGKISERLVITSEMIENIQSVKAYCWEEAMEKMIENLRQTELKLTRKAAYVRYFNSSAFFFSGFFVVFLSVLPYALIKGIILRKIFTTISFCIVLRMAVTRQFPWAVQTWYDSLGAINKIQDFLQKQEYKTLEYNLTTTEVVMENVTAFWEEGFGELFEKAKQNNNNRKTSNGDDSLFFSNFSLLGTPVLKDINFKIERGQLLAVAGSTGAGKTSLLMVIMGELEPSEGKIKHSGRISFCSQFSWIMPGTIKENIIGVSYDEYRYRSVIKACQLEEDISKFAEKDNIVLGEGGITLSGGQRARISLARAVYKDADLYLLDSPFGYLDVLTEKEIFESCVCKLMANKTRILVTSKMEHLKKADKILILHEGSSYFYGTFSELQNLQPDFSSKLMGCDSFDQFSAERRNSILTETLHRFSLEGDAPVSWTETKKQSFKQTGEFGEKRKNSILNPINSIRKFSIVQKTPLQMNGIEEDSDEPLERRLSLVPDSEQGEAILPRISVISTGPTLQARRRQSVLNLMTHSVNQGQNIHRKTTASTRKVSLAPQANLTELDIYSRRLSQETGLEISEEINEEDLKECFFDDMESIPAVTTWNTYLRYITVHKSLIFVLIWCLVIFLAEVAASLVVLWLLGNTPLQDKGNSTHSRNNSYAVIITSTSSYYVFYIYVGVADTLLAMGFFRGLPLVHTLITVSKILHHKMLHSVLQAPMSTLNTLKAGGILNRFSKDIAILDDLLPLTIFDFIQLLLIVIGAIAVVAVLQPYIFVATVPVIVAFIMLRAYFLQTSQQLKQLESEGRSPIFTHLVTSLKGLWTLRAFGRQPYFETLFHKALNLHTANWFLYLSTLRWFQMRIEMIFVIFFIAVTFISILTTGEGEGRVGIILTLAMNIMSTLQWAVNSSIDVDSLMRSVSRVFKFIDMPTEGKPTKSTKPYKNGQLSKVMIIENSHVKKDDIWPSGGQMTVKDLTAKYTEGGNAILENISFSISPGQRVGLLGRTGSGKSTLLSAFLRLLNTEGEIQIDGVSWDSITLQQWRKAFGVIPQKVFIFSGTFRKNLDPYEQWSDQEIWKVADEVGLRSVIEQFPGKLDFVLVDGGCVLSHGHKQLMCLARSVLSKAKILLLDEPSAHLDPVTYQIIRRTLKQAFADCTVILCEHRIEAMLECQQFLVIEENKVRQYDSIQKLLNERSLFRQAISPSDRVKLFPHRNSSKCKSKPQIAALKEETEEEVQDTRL

For `CC(C)(C)c1cc(C(C)(C)C)c(NC(=O)c2c[nH]c3ccccc3c2=O)cc1O` [Vx-770, ivacaftor], the Hill coefficient (ΔF508 CFTR) was 1.12±0.07, the “reversibility of current stimulation” value (ΔF508 CFTR) was “fully reversible” and the “time constant of reversal” value (ΔF508 CFTR) was ~ 2 min. For the same compound, the EC50 (ΔF508 CFTR; diluted from 1x saturated aqueous stock, 2 mM ATP, read-out: K0.5 for current stimulation) was 1.53 nM and ~1.5 nM, the “TΔS^osol” value ([1]; 25°C) was “+10.1 kJ/mol” and the “standard free energy of solution ΔG^osol” value ([1]; 25°C) was “+41.1 kJ/mol”. For the same compound, the “standard enthalpy of solution ΔH^osol” value ([1]; from aqueous solubilities at 37°C vs. 25°C, pH 7.1) was “+51.2 kJ/mol”.
